Results as given in US20220155322A1, “USE OF NATRIURETIC PEPTIDES TO ASSESS AND TREAT ACUTE KIDNEY INJURY” (Mayo Foundation for Medical Education and Research, priority 2019, published 2022).
Positions of bridges follow the written chain, without caps; N, C: chain ends. Residues, ends and D or L forms follow the SMILES beside them.

Experiments:
[1] = test system: human primary aortic vascular smooth muscle cells (HASMC); assay: Intracellular calcium under ANGII stimulation (Fura-2); assay type: cell-based
Procedure: Measurements of Intracellular Calcium in Vascular Smooth Muscle Cells: HASMC (ScienCell Research Laboratories; Carlsbad, Calif.) were cultured and maintained as instructed by the manufacturer. Cells at passage 4 or 5 were used for experiments. Calcium imaging was performed as described elsewhere (Chai et al., Cardiovasc Res, 100:151-159, 2013). Briefly, cells were seeded on a 25 mm round cover glass (Fisher Scientific; Pittsburgh, Pa.) at a density of 5×10^4 cells per slide. The slides had been pretreated with 0.5 N NaOH for 8 hours, rinsed with water, and sterilized before use. After overnight culturing, the slides with cells were assembled in a MS-02 Chamber (ALA Scientific Instrument; Farmingdale, N.Y.) and loaded with 3 μM fura-2 AM (Invitrogen; Carlsbad, Calif.) for 30 minutes in a 37° C. incubator. The chamber was then placed on the stage of an inverted Olympus IX71 microscope (Olympus America Inc.; Waltham, Mass.). The cells were maintained in 1 mL HASMC medium and treated with or without ANP, BNP, or CRRL269 at concentration of 10^−9 or 10^−7 M for 5 minutes before perfused with 5 mL medium containing ANGII (10^−8 or 10^−7 M). Intracellular Ca2^+ fluorescence signals were measured as a ratio of fluorescence intensities at 510 nm from excitations of 340/380 nm, using a Hamamatsu ORCA-R2 CCD camera with a Sutter LB-LS/17 light source. Baseline fluorescence was recorded after 5 minutes of treatment, and fluorescence images were acquired continuously during the ANGII perfusion. Background fluorescence was subtracted and the calcium signal (F) was normalized to baseline fluorescence (FO) and expressed as a ratio (F/FO) using MetaFluor software (Olympus America Inc.).

[2] = test system: apoptosis pathway genes in HRPTC; assay: Apoptosis pathway PCR array in H/R HRPTC; assay type: cell-based, human
Procedure: Apoptosis Pathway PCR Array and Caspase7 Real Time PCR: Two groups of HRPTC (vehicle and 10^−6 M CRRL269) that underwent oil induced H/R, and a negative control (Neg Ctrl) group with no H/R stress, were cultured in 6-well plates as described above, and total RNA was collected using the Trizol method (Thermo Fisher Scientific; Waltham, Mass.). RNA was reverse transcribed for cDNA for PCR RT2 array experiments. Apoptosis pathway PCR array (Qiagen; Germantown, Md.) was conducted using the SYBR green (Bio-Rad Laboratories; Hercules, Calif.) method in a Lightcycler 480 (Roche Diagonostics; Indianapolis, Ind.). Raw data were analyzed with the online Qiagen RT2 PCR analysis program. […] A Caspase7 RT-PCR primer (PPH00110C-200, Qiagen) was obtained, and RT-PCR reactions were performed using the SYBR green method in a Lightcycler 480. The B2M gene (primer PPH01094E, Qiagen) was used for normalization.

## CC[C@H](C)[C@@H]1NC(=O)[C@H](CCCNC(=N)N)NC(=O)[C@H](CC(=O)O)NC(=O)[C@H](CCSC)NC(=O)[C@H](CCCCN)NC(=O)[C@H](CCCNC(=N)N)NC(=O)CNC(=O)[C@H](Cc2ccccc2)NC(=O)[C@@H](NC(=O)[C@H](CO)NC(=O)[C@H](CO)NC(=O)[C@H](CCCNC(=N)N)NC(=O)[C@H](CCCNC(=N)N)NC(=O)[C@H](CC(C)C)NC(=O)[C@H](CO)NC(=O)[C@H](CCCNC(=N)N)NC(=O)[C@@H]2CCCN2C(=O)[C@H](C)NC(=O)[C@@H](N)[C@@H](C)O)CSSC[C@@H](C(=O)N[C@@H](CC(N)=O)C(=O)N[C@@H](CO)C(=O)N[C@@H](Cc2ccccc2)C(=O)N[C@@H](CCCNC(=N)N)C(=O)N[C@@H](Cc2ccc(O)cc2)C(=O)O)NC(=O)CNC(=O)[C@H](CC(C)C)NC(=O)CNC(=O)[C@H](CO)NC(=O)[C@H](CO)NC(=O)[C@H](CO)NC(=O)[C@H](CO)NC1=O [CRRL269] (H-TAPRSLRRSSCFGRKMDRISSSSGLGCNSFRY-OH; disulfide 11-27)
[1]; HASMC, pretreatment at 10^−9 or 10^−7 M, ANGII stimulation
  Ca2^+ suppression relative to ANP and BNP: less Ca2^+ suppression than ANP and BNP
[1]; pretreatment at 10^−9 or 10^−7 M for 5 minutes, ANGII 10^−8 or 10^−7 M
  Ca2^+ enhancement by ANGII in HASMC: suppressed
[2]; 10^−6 M CRRL269
  Caspase7 gene down-regulation in PCR array: at least two-fold
[2]; 10^−6 M CRRL269, 84-gene array
  number of apoptosis pathway genes down-regulated at least 2 fold: 8 out of 84
